According to patent US20160310578A1, “METHOD OF ACCELERATING OSTEOGENESIS” (Fuji Nihon Seito Corporation, priority 2015, published 2016):

Experiments:
[1] = tested on: osteoblastic cell line MC3T3-E1; test: Effect of DFA III on the number of osteoblastic cells (MTS, absorbance 490 nm) (Example 3); assay type: cell-based, mouse; conditions: for light absorbance at 490 nm (relative number of the cells): MC3T3-E1
Description: The effect of DFA III on osteoblasts was examined using the osteoblastic cell line MC3T3-E1 isolated from […].
First, 3×10^5 cells of MC3T3-E1 were inoculated in 96 wells containing 90 μL of α-MEM medium containing penicillin (manufactured by Sigma) and streptomycin (manufactured by Sigma) (200 μg/mL). DFA III was added to the culture solution so as to result in concentrations of 10 mM, 50 mM, and 100 mM, and the cells were cultured at 37° C. at a CO2 concentration of 5%. Culturing was performed for five wells each for each of the concentrations, and the number of the cells was counted on day 1, day 4, day 7, and day 14 after culturing.
When counting the number of the cells, the cells were treated with 10 mM trypsin for 30 minutes under the same conditions as the cell culture, and then separated from the well. The cells were then added to 100 μL of MTS solution (manufactured by Promega Corp.), and incubated for 30 minutes under the same conditions as the cell culture, and a light absorbance at the wavelength of 490 nm was measured using a plate reader (“iMark Plate Reader” manufactured by Bio-Rad Laboratories, Inc.). The measured light absorbance represents the relative number of the cells.
The average value of the three from the five wells cultured under the same conditions was taken as the measured value. As a control, the wells were used, where the medium of the wells to which DFA III was not added.

[2] = tested on: OVX rats with osseous defect in the epiphyseal area of the tibia; test: Recovery promoting effect in osseous defect of the tibia in OVX rats, 3D CTR (Example 5); assay type: in vivo, Wistar rats; conditions: one month
Description: Animal experiments were conducted using ovariectomized animals (OVX). The animals used were 48 female Wistar rats with body weight of approximately 350 g. They were used in the experiments after being preliminarily reared on standard feed (CE-2 manufactured by CLEA Japan, Inc.) for one week after undergoing ovariectomy. All experiments were approved by the Animal Experiment Ethics Committee of CLEA Japan, Inc. and were conducted according to the policies thereof. The standard feed CE-2 manufactured by CLEA Japan, Inc. contains 1.06 g of calcium per 100 g of the feed as calcium carbonate and calcium iodate (according to 2009 periodic analysis average values listed on the website of CLEA Japan, Inc.).
Using 12 OVX rats after preliminary feeding, phenobarbital in a dose of 0.5 mg per 10 g of body weight was administered intraperitoneally to anesthetize the rats. An incision was made in the skin on the upper portion of the knee joint, and then the knee joint was exposed, and a hole approximately 0.5 mm in diameter was made using a dental round bur in the epiphyseal area of the tibia, and then the incision was sutured.
After the surgery, the rats were divided into four groups of three rats each. Group A was reared on feed obtained by adding 3% collagen and 5% DFA III to the standard feed; Group B was reared on feed obtained by only adding the same amount of DFA III; Group C was reared on feed obtained by only adding the same amount of collagen; Group D was reared on the standard feed only.
After one month of feeding, the same anesthesia was performed, and perfusion fixation was performed with 4% paraformaldehyde from the left ventricle in the same manner as the femur experiment. After fixation, the region where the surgery was performed was extracted, and after washing with 0.8 M cacodylate buffer adjusted to pH 7.4, 3D CTR images were taken using the CTR apparatus mentioned above (FIG. 6).
The bone area and the bone marrow area were measured using five images of the osseous defect in the same manner as in Example 4 (Table 6).

[3] = tested on: ovariectomized animals (OVX); test: Bone tissue analysis by 3D CTR of the femoral articular head in OVX rats (Example 4); assay type: in vivo, Wistar rats
Description: Animal experiments were conducted using ovariectomized animals (OVX). The animals used were 48 female Wistar rats with body weight of approximately 350 g. They were used in the experiments after being preliminarily reared on standard feed (CE-2 manufactured by CLEA Japan, Inc.) for one week after undergoing ovariectomy. All experiments were approved by the Animal Experiment Ethics Committee of CLEA Japan, Inc. and were conducted according to the policies thereof. The standard feed CE-2 manufactured by CLEA Japan, Inc. contains 1.06 g of calcium per 100 g of the feed as calcium carbonate and calcium iodate (according to 2009 periodic analysis average values listed on the website of CLEA Japan, Inc.). After preliminary feeding, 12 OVX rats were divided into groups of three rats each. Group A was reared on feed obtained by adding 3% collagen and 5% DFA III to the standard feed; Group B was reared on feed obtained by only adding the same amount of DFA III; Group C was reared on feed obtained by only adding the same amount of collagen; Group D was reared on the standard feed only. One week, two weeks, three weeks, and one month after the start of feeding, phenobarbital in a dose of 0.5 mg per 10 g of body weight was administered intraperitoneally to anesthetize the rats. Perfusion fixation was performed by injecting 4% paraformaldehyde solution diluted with cacodylate buffer of pH 7.4 and perfusing for 5 minutes from the left ventricle. After fixation, the articular head of the femur and the tibia of the lower limbs were extracted. 3D CTR images of the articular head were taken using a 3D Micro X-ray CTR-mCT2 for experimental animals (manufactured by Rigaku Corp.). From the 3D CTR images that were taken, five images of cross-sections in the same direction were selected, and the bone area and bone marrow area in each individual was measured and the average taken (Table 5 and FIG. 5).

[4] = 3% collagen and/or 5% DFA III in standard feed
[5] = 3% collagen and/or 5% DFA III in standard feed, one month, articular head of femur

In the case of OC[C@H]1O[C@@]2(CO[C@]3(CO)O[C@H](CO)[C@@H](O)[C@@H]3O2)[C@@H](O)[C@@H]1O [DFA III, Difructose anhydride III], the “light absorbance at 490 nm (relative number of the cells)” value ([1]; 10 mM DFA III, 1 Day after culture) is reported as 0.309, the “light absorbance at 490 nm (relative number of the cells)” value ([1]; 10 mM DFA III, 4 Day after culture) is reported as 0.323 and the “light absorbance at 490 nm (relative number of the cells)” value ([1]; 10 mM DFA III, 7 Day after culture) is reported as 0.388. The “light absorbance at 490 nm (relative number of the cells)” value ([1]; 10 mM DFA III, 14 Day after culture) was 0.736, the “light absorbance at 490 nm (relative number of the cells)” value ([1]; 50 mM DFA III, 1 Day after culture) was 0.305 and the “light absorbance at 490 nm (relative number of the cells)” value ([1]; 50 mM DFA III, 4 Day after culture) was 0.380. The “light absorbance at 490 nm (relative number of the cells)” value ([1]; 50 mM DFA III, 7 Day after culture) was 0.430, the “light absorbance at 490 nm (relative number of the cells)” value ([1]; 50 mM DFA III, 14 Day after culture) was 0.849 and the “light absorbance at 490 nm (relative number of the cells)” value ([1]; 100 mM DFA III, 1 Day after culture) was 0.321. The “light absorbance at 490 nm (relative number of the cells)” value ([1]; 100 mM DFA III, 4 Day after culture) was 0.390, the “light absorbance at 490 nm (relative number of the cells)” value ([1]; 100 mM DFA III, 7 Day after culture) was 0.438 and the “light absorbance at 490 nm (relative number of the cells)” value ([1]; 100 mM DFA III, 14 Day after culture) was 0.988. For the same molecule, the “effect on cell division of osteoblasts” value ([1]; MC3T3-E1, conclusion from Table 4) was “stimulates cell division of osteoblasts”, the “cell number values versus control group” value ([1]; day 1, day 4 and day 7 after culturing) was “control group exhibited higher values” and the “cell number values versus control group” value ([1]; day 14 after culturing, 10, 50 and 100 mM) was “higher values than the control group”. It also gave a Bone area [2, 4] of 90.7 μm^2, a Bone marrow area [2, 4] of 704.8 μm^2 and a Total area [2, 4] of 795.5 μm^2. The “Proportion of bone in all bone (%)” value [2] was 11.4%, the “proportion of new bone formation greater than control Group D” value [2] was 4.6% and the “Proportion of bone in articular head (%)” value ([3]; 3% collagen and/or 5% DFA III in standard feed, one month) was 56.1%. The “Bone area (average)” value [3, 5] was 320.0 μm^2, the “Bone marrow area (average)” value [3, 5] was 250.9 μm^2 and the Total area [3, 5] was 570.9 μm^2. For the same molecule, the “CTR images: compact bone and cancellous bone, comparison of the groups” value ([3]; one month, FIG. 4) was “No marked difference”, the “increase of the proportion of bone in the articular head versus control Group D” value ([3]; one month, compared with standard feed only) was 10.2% and the “more bone tissue than the group fed standard feed alone” value ([3]; summary of Example 4) was “approximately 10%”.
